In ChEMBL document CHEMBL1629562, “Activity of indenoisoquinolines against African trypanosomes” (Antimicrob Agents Chemother, 2009) one finds EC50, selectivity ratio and inhibition data, which are given here for 23 compounds.

The source made the active and inactive calls. The calls are words filed in the database; no cut-off is given here.

For data set [1], the system named is Trypanosoma brucei brucei. Description: Trypanocidal activity against Trypanosoma brucei brucei 427 bloodstream forms infected in mouse L1210 cells after 48 hrs. It is filed as functional, organism-based. The conditions noted are these: Trypanosoma brucei, 427, L1210, 48 h.
A further data set concerns L1210. Description: Cytotoxicity against mouse L1210 cells. The data set is classed as cell-based.
Data set [2] can be described thus: Therapeutic index, EC50 for mouse L1210 cells to EC50 for bloodstream-form Trypanosoma brucei brucei 427. It is filed as cell-based. As to conditions: read-out: Ratio EC50.
Data set [3] deals with Trypanosoma brucei brucei. Kind of data set: Inhibition of Trypanosoma brucei brucei 427 bloodstream forms topoisomerase 1B in assessed as formation of enzyme-DNA cleavable complex at 5 uM.
Data set [4] concerns Trypanosoma brucei brucei. Description: Inhibition of Trypanosoma brucei brucei 427 bloodstream form DNA synthesis assessed as inhibition of [3H]thymidine incorporation at 5 uM by liquid scintillation counting. It is filed as functional. On the technique in general: Incorporation of labelled thymidine or its analogues reports DNA synthesis.
For data set [5], the system named is Trypanosoma brucei brucei. Description: Antitrypanosomal activity against Trypanosoma brucei brucei 427 bloodstream forms infected in CD1 mouse assessed as reduction in parasite load at 50 mg/kg, ip after 4 days. It is filed as functional, organism-based. The arrangement: dose 50 mg/kg.
The subject of data set [6] is Trypanosoma brucei brucei. Description: Inhibition of Trypanosoma brucei brucei 427 bloodstream forms topoisomerase 1B in assessed as formation of enzyme-DNA cleavable complex at 10 uM.
Data set [7] relates to Trypanosoma brucei brucei. Description: Inhibition of Trypanosoma brucei brucei 427 bloodstream form DNA synthesis assessed as inhibition of [3H]thymidine incorporation at 10 uM by liquid scintillation counting. The data set is classed as functional.

As a reminder, the EC50 is the concentration that produces a half-maximal response. A higher EC50 goes with lower potency in that assay. The inhibition is the drop in the measured response relative to a control, in per cent.

As for `NCCCn1c2c(c3ccc(Br)cc3c1=O)C(=O)c1cc3c(cc1-2)OCO3`, a half-maximal response in data set [1] (EC50) required 160 nM. In other words, the sub-micromolar range.
Regarding `COC(=O)c1ccc2c(c1)C(=O)c1c-2n(CCCN)c(=O)c2cc(OC)c(OC)cc12`, the EC50 in data set [1] is 170 nM; in the data set with L1210, 2600 nM. Further, the selectivity ratio in data set [2] was found to be 2.5. Besides, the inhibition in data set [3] stood at 12%. Also, in data set [4], the inhibition at 5 µM worked out at 66%.
For the compound `O=C1c2ccccc2-c2c1c1ccc([N+](=O)[O-])cc1c(=O)n2CCCn1ccnc1`, in data set [1], a half-maximal response (EC50) required 200 nM.
In data set [1], `COc1ccc2c(c1)C(=O)c1c-2n(CCCN)c(=O)c2ccccc12` had an EC50 of 140 nM.
As to `COc1ccc2c(c1)C(=O)c1c-2n(CCCN)c(=O)c2cc([N+](=O)[O-])ccc12`, the EC50 in data set [1] was 60 nM.
`COc1cc2c3c(n(CCCN)c(=O)c2cc1OC)-c1cc2c(cc1C3=O)OCO2`: the EC50 in data set [1] turned out to be 120 nM; in the data set with L1210 it was 420 nM. Besides, the selectivity ratio in data set [2] is 2.1. Also, the inhibition in data set [3] amounted to 4%. In data set [4], the inhibition at 5 µM stood at 61%.
In the same order, the values of `COc1cc2c3c(n(CCCN)c(=O)c2cc1OC)-c1ccccc1C3=O` are 130 nM, 2800 nM, 4.3, 4% and 67%.
In the same order, the values of `COc1cc2c3c(n(CCCN)c(=O)c2cc1OC)-c1ccc(C#N)cc1C3=O` are 350 nM, 970 nM, 2.8, 3% and 69%.
With `NCCCn1c2c(c3ccccc3c1=O)C(=O)c1cc3c(cc1-2)OCO3`, a half-maximal effect in data set [1] (EC50) was put at 60 nM.
Same read-out and setting: as for `O=C1c2ccccc2-c2c1c1ccccc1c(=O)n2CCCn1ccnc1`, the figure is 4200 nM; as for `NCCCn1c2c(c3ccc([N+](=O)[O-])cc3c1=O)C(=O)c1cc(F)ccc1-2`, 80 nM.
In turn, `NCCCn1c2c(c3ccc([N+](=O)[O-])cc3c1=O)C(=O)c1cc3c(cc1-2)OCO3` returned an EC50 in data set [1] of 50 nM.
Regarding `COc1ccc2c(c1)C(=O)c1c-2n(CCCN)c(=O)c2cc(OC)c(OC)cc12`, the half-maximal effective concentration (EC50) is 50 nM in data set [1] and 4300 nM with L1210. Besides, in data set [5], the inhibition entry was “Active”. Also, the selectivity ratio in data set [2] amounted to 5.6. In addition, the inhibition in data set [3] worked out at 3%. Moreover, the inhibition at 5 µM in data set [4] is 68%.
In data set [1], `COc1cc2c3c(n(CCCn4ccnc4)c(=O)c2cc1OC)-c1ccccc1C3=O` yielded an EC50 of 350 nM.
In the case of `NCCCn1c2c(c3ccccc3c1=O)C(=O)c1ccccc1-2`, in data set [1], the midpoint of the response, the EC50, lay at 380 nM.
As to `COc1cc2c3c(n(CCCNCCCNCCCNCCCN)c(=O)c2cc1OC)-c1cc2c(cc1C3=O)OCO2`, the values for the EC50 (in data set [1]; with L1210) were 1500 nM and 510 nM, respectively. For the same compound, the selectivity ratio in data set [2] is 1.9. Moreover, the inhibition in data set [3] worked out at 10%. Moreover, in data set [4], the inhibition at 5 µM stood at 34%.
With `COc1cc2c(cc1OC)-c1c(c3ccc([N+](=O)[O-])cc3c(=O)n1CCCN)C2=O`, in data set [1], the concentration giving a half-maximal response (EC50) is 140 nM.
In data set [1], `COc1cc2c3c(n(CCCNCCCNCCN)c(=O)c2cc1OC)-c1cc2c(cc1C3=O)OCO2` registered an EC50 of 970 nM. This EC50 is about 6.9-fold higher than that of the compound before.
In the case of `COc1cc2c3c(n(CCCNCCCCN)c(=O)c2cc1OC)-c1cc2c(cc1C3=O)OCO2`, the EC50 in data set [1] came out at 990 nM; with L1210 it was 250 nM. For the same compound, the selectivity ratio in data set [2] came to 4.3. The inhibition in data set [3] is 7%. Further, the inhibition at 5 µM in data set [4] stood at 56%.
In the same order, the values of `COc1cc2c3c(n(CCCNCCNCCCN)c(=O)c2cc1OC)-c1cc2c(cc1C3=O)OCO2` are 650 nM, 280 nM, 4, 11% and 44%.
As for `CC[C@@]1(O)C(=O)OCc2c1cc1n(c2=O)Cc2cc3ccccc3nc2-1` [CAMPTOTHECIN], the inhibition in data set [6] turned out to be 61%. In addition, the inhibition at 10 µM in data set [7] is 27%.
The compound `NCCCn1c2c(c3ccc([N+](=O)[O-])cc3c1=O)C(=O)c1ccccc1-2` showed an EC50 in data set [1] of 140 nM.
For `COc1cc2c3c(n(CCCn4ccnc4)c(=O)c2cc1OC)-c1cc2c(cc1C3=O)OCO2` [INDIMITECAN], the EC50 in data set [1] came to 60 nM.
